This series concerns rodent carcinogenicity bioassays, tumor incidence. The experiment in a line: CCRIS carcinogenicity studies. The procedure, abridged:
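NCI-built, expert-reviewed records of carcinogenicity and related test outcomes (mutagenicity, tumor promotion/inhibition) compiled from published and report sources, historical span 1985-2011, not updated.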

SMILES strings stand for the structures. Active and inactive are the calls of the source. The rule behind the calls is not given here.

For `C/C=C/C=C/C=O`, the carcinogen call runs as follows: (Species: MOUSE, Strain/Sex: B6C3F1/FEMALE, Route: GAVAGE, Dose: 0, 30, 60, 120 MG/KG IN CORN OIL 5 D/WK FOR DURATION OF STUDY (STUDY DURATION: 105 WK), Dose: 0, 30, 60, 120 MG/KG IN CORN OIL 5 D/WK FOR DURATION OF STUDY (STUDY DURATION: 105 WK), Tumor Site: Type of Lesion: FORESTOMACH: SQUAMOUS CELL PAPILLOMA, SQUAMOUS CELL CARCINOMA, SQUAMOUS CELL PAPILLOMA OR CARCINOMA) “active; positive”; (Species: MOUSE, Strain/Sex: B6C3F1/MALE, Route: GAVAGE, Dose: 0, 30, 60, 120 MG/KG IN CORN OIL 5 D/WK FOR DURATION OF STUDY (STUDY DURATION: 105 WK), Dose: 0, 30, 60, 120 MG/KG IN CORN OIL 5 D/WK FOR DURATION OF STUDY (STUDY DURATION: 105 WK), Tumor Site: Type of Lesion: FORESTOMACH: SQUAMOUS CELL PAPILLOMA, SQUAMOUS CELL CARCINOMA, SQUAMOUS CELL PAPILLOMA OR CARCINOMA) “active; positive”; (Species: RAT, Strain/Sex: F344/FEMALE, Route: GAVAGE, Dose: 0, 22.5, 45, 90 MG/KG IN CORN OIL 5 D/WK FOR DURATION OF STUDY (STUDY DURATION: 105 WK), Dose: 0, 22.5, 45, 90 MG/KG IN CORN OIL 5 D/WK FOR DURATION OF STUDY (STUDY DURATION: 105 WK), Tumor Site: Type of Lesion: FORESTOMACH: SQUAMOUS CELL PAPILLOMA) “active; positive”; (Species: RAT, Strain/Sex: F344/MALE, Route: GAVAGE, Dose: 0, 22.5, 45, 90 MG/KG IN CORN OIL 5 D/WK FOR DURATION OF STUDY (STUDY DURATION: 105 WK), Dose: 0, 22.5, 45, 90 MG/KG IN CORN OIL 5 D/WK FOR DURATION OF STUDY (STUDY DURATION: 105 WK), Tumor Site: Type of Lesion: FORESTOMACH: SQUAMOUS CELL PAPILLOMA, SQUAMOUS CELL CARCINOMA, SQUAMOUS CELL PAPILLOMA OR CARCINOMA) “active; positive”.
On to `COc1cc2c(c3oc(=O)c4c(c13)CCOC4=O)[C@@H]1C=CO[C@@H]1O2`, for which the carcinogen call reads like this: (Species: HUMAN, Route: ORAL, Tumor Site: Type of Lesion: LIVER) “active; positive”; (Species: RAT, Route: ORAL, Tumor Site: Type of Lesion: KIDNEY) “active; positive”.
For `Cc1cc(N=Nc2c(O)ccc3ccccc23)c(S(=O)(=O)O)cc1Cl`, the carcinogen call is “inactive; negative” (Species: MOUSE, Strain/Sex: B6C3F1/FEMALE, Route: ORAL, Dose: 0, 1000, 2000 PPM IN DIET FOR 103 WK (STUDY DURATION: 103 WK), Dose: 0, 1000, 2000 PPM IN DIET FOR 103 WK (STUDY DURATION: 103 WK)); “inactive; negative” (Species: MOUSE, Strain/Sex: B6C3F1/MALE, Route: ORAL, Dose: 0, 1000, 2000 PPM IN DIET FOR 103 WK (STUDY DURATION: 103 WK), Dose: 0, 1000, 2000 PPM IN DIET FOR 103 WK (STUDY DURATION: 103 WK)); “inactive; negative” (Species: MOUSE, Strain/Sex: ICR/FEMALE, Route: DERMAL, Dose: 0, 1 MG IN 0.1 ML DISTILLED WATER 2/WK FOR A MEAN TOTAL DOSE OF 134.7 MG (STUDY DURATION: 18 MO)); “inactive; negative” (Species: MOUSE, Strain/Sex: ICR/MALE, Route: DERMAL, Dose: 0, 1 MG IN 0.1 ML DISTILLED WATER 2/WK FOR A MEAN TOTAL DOSE OF 134.7 MG (STUDY DURATION: 18 MO)); “equivocal” (Species: RAT, Strain/Sex: F344/FEMALE, Route: ORAL, Dose: 0, 1000, 3000 PPM IN DIET FOR 103 WK (STUDY DURATION: 103 WK), Dose: 0, 1000, 3000 PPM IN DIET FOR 103 WK (STUDY DURATION: 103 WK), Tumor Site: Type of Lesion: LIVER: NEOPLASTIC NODULE); “inactive; negative” (Species: RAT, Strain/Sex: F344/FEMALE, Route: ORAL, Dose: 0, 1000, 3000 PPM IN DIET FOR 103 WK (STUDY DURATION: 104 WK), Dose: 0, 1000, 3000 PPM IN DIET FOR 103 WK (STUDY DURATION: 104 WK)). Moreover, the carcinogen call reads like this: (Species: RAT, Strain/Sex: F344/MALE, Route: ORAL, Dose: 0, 1000, 3000 PPM IN DIET FOR 103 WK (STUDY DURATION: 103 WK), Dose: 0, 1000, 3000 PPM IN DIET FOR 103 WK (STUDY DURATION: 103 WK), Tumor Site: Type of Lesion: SPLEEN: SARCOMA, LIVER: NEOPLASTIC NODULE) “active; positive”; (Species: RAT, Strain/Sex: F344/MALE, Route: ORAL, Dose: 0, 1000, 3000 PPM IN DIET FOR 103 WK (STUDY DURATION: 104 WK), Dose: 0, 1000, 3000 PPM IN DIET FOR 103 WK (STUDY DURATION: 104 WK), Tumor Site: Type of Lesion: SPLEEN OR PERITONEUM: SARCOMA) “active; positive”.
Turning to `COC(=O)C(C)(C)Oc1ccc(-c2ccc(Cl)cc2)cc1`, where the note is “Species: RAT, Strain/Sex: F344/MALE, Route: ORAL, Dose: 0.1% IN DIET FOR 75 WK, Tumor Site: Type of Lesion: LIVER: HEPATOCELLULAR CARCINOMA”, the carcinogen call is “active; positive”.
As for `COc1cc2c(c3c1c(=O)c1ccccc1n3C)C=CC(C)(C)O2`, the carcinogen call by setting is: (Species: RAT, Strain/Sex: SPRAGUE-DAWLEY/FEMALE, Route: INTRAPERITONEAL, Dose: 0, 3.75, 7.5, 15 MG/KG FOR 52 WK (STUDY DURATION: 80-82 WK), Dose: 0, 3.75, 7.5, 15 MG/KG FOR 52 WK (STUDY DURATION: 80-82 WK), Tumor Site: Type of Lesion: MAMMARY GLAND: FIBROADENOMA, PERITONEAL CAVITY: SARCOMA OR FIBROSARCOMA OR MESOTHELIOMA) “active; positive”; (Species: RAT, Strain/Sex: SPRAGUE-DAWLEY/MALE, Route: INTRAPERITONEAL, Dose: 0, 3.75, 7.5, 15 MG/KG FOR 51-52 WK (STUDY DURATION: 51-82 WK), Dose: 0, 3.75, 7.5, 15 MG/KG FOR 51-52 WK (STUDY DURATION: 51-82 WK), Tumor Site: Type of Lesion: MUSCULOSKELETAL SYSTEM: OSTEOSARCOMA, PERITONEAL CAVITY: SARCOMA OR FIBROSARCOMA OR MESOTHELIOMA) “active; positive”.
Take `C[C@@H]1C[C@H](C)CN(S(=O)(=O)c2ccc(Cl)c(C(=O)O)c2)C1`: under “Species: RAT, Strain/Sex: F344/MALE, Route: ORAL, Dose: 0.2% IN DIET FOR 7.5 MO, THEN 0.1% FOR 4 MO, THEN 0.05% FOR 4 MO, Tumor Site: Type of Lesion: LIVER: HEPATOCELLULAR CARCINOMA”, the carcinogen call is “active; positive”.
`CCN(Cc1cccc(S(=O)(=O)[O-])c1)c1ccc(C(=C2C=CC(=[N+](C)C)C=C2)c2ccc(N(CC)Cc3cccc(S(=O)(=O)O)c3)cc2)cc1`: the carcinogen call (Species: MOUSE, Strain/Sex: SWISS-WEBSTER/FEMALE, Route: DERMAL, Dose: 0, 1% IN 0.1 ML DISTILLED WATER 1/WK FOR 18 MO (STUDY DURATION: 18 MO)) is “inactive; negative”; the carcinogen call (Species: MOUSE, Strain/Sex: SWISS-WEBSTER/MALE, Route: DERMAL, Dose: 0, 1% IN 0.1 ML DISTILLED WATER 1/WK FOR 18 MO (STUDY DURATION: 18 MO)) was “inactive; negative”; the carcinogen call (Species: RAT, Route: ORAL, Tumor Site: Type of Lesion: MAMMARY GLAND, INTEGUMENTARY SYSTEM (SKIN)) was “active; positive”; the carcinogen call (Species: RAT, Route: SUBCUTANEOUS, Tumor Site: Type of Lesion: INJECTION SITE) is “active; positive”.
On to `O=[N+]([O-])c1cc([N+](=O)[O-])c2ccc3cccc4ccc1c2c43`, for which the carcinogen call reads like this: (Species: RAT, Strain/Sex: STRAIN CD/FEMALE, Route: INTRAGASTRIC, Dose: 10 UMOL IN DMSO 3/WK FOR 4 WK (TOTAL DOSE: 16 UMOL/RAT) (STUDY DURATION: 78 WK), Tumor Site: Type of Lesion: ADRENAL GLAND: CORTICAL ADENOMA, PITUITARY GLAND: CARCINOMA) “active; positive”; (Species: RAT, Strain/Sex: STRAIN CD/FEMALE, Route: INTRAPERITONEAL, Dose: 0, 10 UMOL IN DMSO 3/WK FOR 4 WK (TOTAL DOSE: 16 UMOL/RAT) (STUDY DURATION: 78 WK), Tumor Site: Type of Lesion: MAMMARY GLAND: ADENOCARCINOMA, FIBROADENOMA, ADENOMA) “active; positive”; (Species: RAT, Strain/Sex: STRAIN-CD/FEMALE, Route: SUBCUTANEOUS, Dose: 0, 6.3 UMOL (TOTAL DOSE) ADMINISTERED OVER 8 WK BEGINNING ON DAY OF BIRTH (STUDY DURATION: 67 WK), Tumor Site: Type of Lesion: INTEGUMENTARY SYSTEM: MALIGNANT FIBROUS HISTIOCYTOMA) “active; positive”.
With `O=C(OOC(=O)c1ccccc1)c1ccccc1`, under “Species: MOUSE, Strain/Sex: SENCAR/FEMALE, Route: DERMAL, Dose: 0, 0.2 ML OF 100 MG/ML SOLUTION IN ACETONE 2 D/WK FOR 51 WK (STUDY DURATION: 52 WK), Tumor Site: Type of Lesion: SKIN: SQUAMOUS CELL CARCINOMA OR EPIDERMAL HYPERPLASIA”, the carcinogen call is “active; positive”.
